Results as given in US9089136B2, “Pyrimidine compound and use thereof for pest control” (Sumitomo Chemical Company, Limited, priority 2010, dated 2015).

Assays:
Aphis gossypii = experiment: Test Example 1: spray test against Aphis gossypii on cucumber seedling; type: in vivo; conditions: 144 h, 500 ppm active ingredient, formulation of Formulation Example 5 diluted with water, 20 ml sprayed on cucumber seedling, six days after spraying
Protocol: On the other hand, about 30 Aphis gossypii were incubated on a cucumber seeding (the first true leaf stage) planted in a plastic cup, and leaving it for a day. 20 ml of each of the above test spray solutions was sprayed on this seeding. Six days after spraying, the number of the surviving Aphis gossypii parasitized on the leaves of the cucumber was examined, and a control value was calculated according to the following equation: Control value(%)={1−(Cb×Tai)/(Cai×Tb))×100 wherein symbols represent as follows: Cb: the number of insects in a non-treated section before treatment, Cai: the number of insects in a non-treated section in observation, Tb: the number of insects in a treated-section before treatment, Tai: the number of insects in a treated-section in observation.

Bemisia tabaci = experiment: Test Example 2: spray test against Bemisia tabaci instar larvae on tomato seedling; type: in vivo; conditions: 168 h, 500 ppm active ingredient, formulation of Formulation Example 5 diluted with water, 10 ml/cup sprayed on tomato seedling, greenhouse at 25° C., after 7 days
Protocol: On the other hand, Bemisia tabaci adult was released on a tomato seeding (the third true leaf stage) planted in a polyethylene cup, and made to lay eggs for about 24 hours. The tomato seedling was kept in a greenhouse for 8 days. When instar larvae hatched from the eggs, the above test spray solution was sprayed in the amount of 10 ml/cup. The cup was kept in a greenhouse at 25° C. After the keeping for 7 days, the number of surviving instar larvae on the tomato leaves was examined, and a control value was calculated according to the following equation: Control value(%)={1−(Cb×Tai)/(Cai×Tb))×100 wherein symbols represent as follows: Cb: the number of pests in a non-treated section before treatment, Cai: the number of pests in a non-treated section in observation, Tb: the number of pests in a treated-section before treatment, Tai: the number of pests in a treated-section in observation.

Row | Compound | pest or weed control at 500 ppm (Aphis gossypii) [%] | pest or weed control at 500 ppm (Bemisia tabaci) [%]
1 | Cn1c(-c2ncncc2Cl)nc2cc(C(F)(F)F)cnc21 [Compound 13] | ≥ 90 | ≥ 90
2 | CCSc1cncnc1-c1nc2cc(C(F)(F)F)ccc2n1C [Compound 7, 2-(5-ethylthiopyrimidin-4-yl)-1-methyl-5-trifluoromethyl-1H-benzimidazole] | ≥ 90 | ≥ 90
3 | CCc1cncnc1-c1nc2cc(C(F)(F)F)cnc2o1 [Compound 15] | ≥ 90 | ≥ 90
4 | CCS(=O)(=O)c1cncnc1-c1nc2cc(C(F)(F)F)cnc2n1C [Compound 6] | ≥ 90 | ≥ 90
5 | CCS(=O)(=O)c1cncnc1-c1nc2cc(C(F)(F)F)ccc2n1C [Compound 9] | ≥ 90 | ≥ 90
6 | CC[S+]([O-])c1cncnc1-c1nc2cc(C(F)(F)F)cnc2n1C (stereo not shown) [Compound 5] | ≥ 90 | ≥ 90
7 | Cn1c(-c2ccncn2)nc2cc(C(F)(F)F)ccc21 [Compound 2] | ≥ 90 | ≥ 90
8 | CCSc1cncnc1-c1nc2cc(C(F)(F)F)cnc2n1C [Compound 4] | ≥ 90 | ≥ 90
9 | CCc1cncnc1-c1nc2cc(C(F)(F)F)ccc2o1 [Compound 10] | ≥ 90 | ≥ 90
10 | Cn1c(-c2ncncc2OCC(F)(F)F)nc2cc(C(F)(F)F)cnc21 [Compound 3] | ≥ 90 | ≥ 90
11 | CC[S+]([O-])c1cncnc1-c1nc2cc(C(F)(F)F)ccc2n1C (stereo not shown) [Compound 8] | ≥ 90 | ≥ 90
